Relative viability data for nine cell lines are collected here from the supplement of paper PMC10307832.

Holding throughout (test): relative viability (nuclei count vs DMSO), 5 days (fraction); higher = more cells survive
Compound in assay [1]: C[C@@H](N)c1ccc(C(=O)Nc2ccnc3[nH]ccc23)cc1 + COc1cc2c(Oc3ccc(NC(=O)C4(C(=O)Nc5ccc(F)cc5)CC4)cc3F)ccnc2cc1OCCCN1CCOCC1 [Foretinib] (partner 0.25 µM)
In outline:
(§1)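 The day after seeding in 1536-well plates, lung cancer cell lines were treated by pin tool with a single drug, or with a fixed anchor-drug dose together with five library-drug doses (not always all listed) in √10 steps. After 5 days, a combined fix-and-stain solution (final 0.05% Triton X-100, 1% formaldehyde, 1 ug/ml Hoechst) was added. Nuclei counted on 4× images gave relative viability as treated counts over vehicle counts, reported as the median of duplicate plates.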

Compound in assay [2]: C1CNCCC1C2=CC(=NN2)C3=CC=NC=C3 + O=C(c1cc(Cc2n[nH]c(=O)c3ccccc23)ccc1F)N1CCN(C(=O)C2CC2)CC1 [Olaparib] (partner 8 µM)
In outline: as §1

Compound in assay [3]: O[C@H]1CC[C@H](Nc2ncc3nc(Nc4c(F)cc(F)cc4F)n([C@H]4CCOC4)c3n2)CC1 [Tanzisertib] + Nc1ncn([C@H]2C[C@H](O)[C@@H](CO)O2)c(=O)n1 [Decitabine] (partner 2 µM)
In short, it runs like this: as §1

Compound in assay [4]: C[C@@H](N)c1ccc(C(=O)Nc2ccnc3[nH]ccc23)cc1 + CC(=O)c1c(C)c2cnc(Nc3ccc(N4CCNCC4)cn3)nc2n(C2CCCC2)c1=O [Palbociclib] (partner 0.5 µM)
In outline: as §1

Regarding EBC-1, the relative viability in assay [1] (first compound 0.04 µM) came to 0.0976; in assay [1] (first compound 0.1265 µM), 0.0967; in assay [1] (first compound 0.4 µM), 0.0934; in assay [1] (first compound 1.265 µM), 0.0803; in assay [1] (first compound 4 µM) it was 0.092; in assay [2] (first compound 0.08 µM) it was 0.778. For the same cell line, the relative viability in assay [2] (first compound 0.8 µM) was determined as 0.722; in assay [2] (first compound 2.53 µM), 0.804; in assay [2] (first compound 8 µM), 0.741.
In the case of EKVX, the relative viability in assay [3] (first compound 0.08 µM) turned out to be 0.371; in assay [3] (first compound 0.253 µM), 0.356; in assay [3] (first compound 0.8 µM), 0.41; in assay [3] (first compound 2.53 µM) it was 0.323; in assay [3] (first compound 8 µM), 0.324; in assay [4] (first compound 0.04 µM) it was 0.413. The relative viability stood at 0.415 in assay [4] (first compound 0.1265 µM); 0.432 in assay [4] (first compound 0.4 µM); 0.38 in assay [4] (first compound 1.265 µM); 0.28 in assay [4] (first compound 4 µM); 0.84 in assay [1] (first compound 0.04 µM); 0.674 in assay [1] (first compound 0.1265 µM). Moreover, the relative viability in assay [1] (first compound 0.4 µM) turned out to be 0.888; in assay [1] (first compound 1.265 µM), 0.208; in assay [1] (first compound 4 µM), 0.727; in assay [2] (first compound 0.08 µM), 0.882; in assay [2] (first compound 2.53 µM) it was 1.05; in assay [2] (first compound 8 µM), 0.755.
EMC-BAC-2: the relative viability in assay [3] (first compound 0.08 µM) was found to be 1.05; in assay [3] (first compound 0.253 µM) it was 0.947; in assay [3] (first compound 0.8 µM) it was 0.957; in assay [3] (first compound 2.53 µM), 0.96; in assay [3] (first compound 8 µM), 0.937; in assay [4] (first compound 0.04 µM), 0.473. In addition, the relative viability in assay [4] (first compound 0.1265 µM) is 0.501; in assay [4] (first compound 0.4 µM), 0.474; in assay [4] (first compound 1.265 µM), 0.48; in assay [4] (first compound 4 µM), 0.436; in assay [1] (first compound 0.04 µM), 1.08; in assay [1] (first compound 0.1265 µM), 1.05. The relative viability in assay [1] (first compound 0.4 µM) turned out to be 1.11; in assay [1] (first compound 1.265 µM), 0.967; in assay [1] (first compound 4 µM), 0.903; in assay [2] (first compound 0.08 µM) it was 0.346; in assay [2] (first compound 0.8 µM) it was 0.521; in assay [2] (first compound 2.53 µM) it was 0.476. Besides, the relative viability in assay [2] (first compound 8 µM) worked out at 0.477.
As for EPLC-272H, the relative viability worked out at 0.43 in assay [3] (first compound 0.08 µM); 0.366 in assay [3] (first compound 0.253 µM); 0.43 in assay [3] (first compound 0.8 µM); 0.381 in assay [3] (first compound 2.53 µM); 0.353 in assay [3] (first compound 8 µM); 0.39 in assay [4] (first compound 0.04 µM). Besides, the relative viability in assay [4] (first compound 0.1265 µM) was 0.356; in assay [4] (first compound 0.4 µM) it was 0.384; in assay [4] (first compound 4 µM) it was 0.427; in assay [1] (first compound 0.04 µM) it was 0.715; in assay [1] (first compound 0.1265 µM), 0.747; in assay [1] (first compound 0.4 µM), 0.797. The relative viability turned out to be 0.768 in assay [1] (first compound 1.265 µM); 0.587 in assay [1] (first compound 4 µM); 0.973 in assay [2] (first compound 0.08 µM); 0.761 in assay [2] (first compound 0.8 µM); 0.935 in assay [2] (first compound 2.53 µM); 0.801 in assay [2] (first compound 8 µM).
Turning to H3255, the relative viability in assay [3] (first compound 0.08 µM) is 0.799; in assay [3] (first compound 0.253 µM), 0.598; in assay [3] (first compound 0.8 µM) it was 0.647; in assay [3] (first compound 2.53 µM) it was 0.482; in assay [3] (first compound 8 µM), 0.448; in assay [4] (first compound 0.04 µM), 0.299. The relative viability in assay [4] (first compound 0.1265 µM) was found to be 0.298; in assay [4] (first compound 0.4 µM), 0.298; in assay [4] (first compound 1.265 µM), 0.336; in assay [4] (first compound 4 µM), 0.286; in assay [1] (first compound 0.04 µM), 0.855; in assay [1] (first compound 0.1265 µM), 0.939. Besides, the relative viability in assay [1] (first compound 0.4 µM) stood at 1.14; in assay [1] (first compound 1.265 µM) it was 0.731; in assay [1] (first compound 4 µM) it was 0.892; in assay [2] (first compound 0.08 µM), 0.562; in assay [2] (first compound 0.8 µM), 0.567; in assay [2] (first compound 2.53 µM), 0.601. In assay [2] (first compound 8 µM), the relative viability is 0.608.
For HARA, the relative viability was found to be 0.602 in assay [3] (first compound 0.08 µM); 0.579 in assay [3] (first compound 0.253 µM); 0.504 in assay [3] (first compound 0.8 µM); 0.566 in assay [3] (first compound 2.53 µM); 0.539 in assay [3] (first compound 8 µM); 0.292 in assay [4] (first compound 0.04 µM). The relative viability in assay [4] (first compound 0.1265 µM) worked out at 0.271; in assay [4] (first compound 0.4 µM), 0.28; in assay [4] (first compound 1.265 µM), 0.214; in assay [4] (first compound 4 µM), 0.248; in assay [1] (first compound 0.1265 µM), 0.939; in assay [1] (first compound 0.4 µM), 0.943. Moreover, the relative viability in assay [1] (first compound 4 µM) is 0.896; in assay [2] (first compound 0.08 µM) it was 0.762; in assay [2] (first compound 0.8 µM) it was 1.27; in assay [2] (first compound 2.53 µM) it was 1.21; in assay [2] (first compound 8 µM), 1.11.
Turning to HCC-15, the relative viability was 0.66 in assay [3] (first compound 0.08 µM); 0.674 in assay [3] (first compound 0.253 µM); 0.737 in assay [3] (first compound 0.8 µM); 0.659 in assay [3] (first compound 2.53 µM); 0.647 in assay [3] (first compound 8 µM); 0.705 in assay [4] (first compound 0.04 µM). Further, the relative viability in assay [4] (first compound 0.1265 µM) was found to be 0.704; in assay [4] (first compound 0.4 µM), 0.704; in assay [4] (first compound 1.265 µM) it was 0.694; in assay [4] (first compound 4 µM), 0.674; in assay [1] (first compound 0.04 µM), 1.21; in assay [1] (first compound 0.1265 µM), 1.03. In addition, the relative viability amounted to 0.966 in assay [1] (first compound 0.4 µM); 0.975 in assay [1] (first compound 4 µM); 0.694 in assay [2] (first compound 0.08 µM); 0.789 in assay [2] (first compound 0.8 µM); 0.766 in assay [2] (first compound 2.53 µM); 0.588 in assay [2] (first compound 8 µM).
For the cell line HCC-44, the relative viability in assay [3] (first compound 0.08 µM) worked out at 0.94; in assay [3] (first compound 0.253 µM), 0.978; in assay [3] (first compound 0.8 µM) it was 0.998; in assay [3] (first compound 2.53 µM), 0.975; in assay [3] (first compound 8 µM) it was 0.955; in assay [4] (first compound 0.04 µM), 0.929. Besides, the relative viability in assay [4] (first compound 0.1265 µM) came to 0.96; in assay [4] (first compound 0.4 µM), 1.02; in assay [4] (first compound 1.265 µM), 1.15; in assay [4] (first compound 4 µM), 1.02; in assay [2] (first compound 0.08 µM), 0.979; in assay [2] (first compound 0.8 µM), 1.06. Also, the relative viability in assay [2] (first compound 2.53 µM) came to 0.953; in assay [2] (first compound 8 µM) it was 0.957.
Take HCC-78: the relative viability in assay [3] (first compound 0.08 µM) is 0.683; in assay [3] (first compound 0.253 µM), 0.675; in assay [3] (first compound 0.8 µM), 0.666; in assay [3] (first compound 2.53 µM), 0.704; in assay [3] (first compound 8 µM) it was 0.622; in assay [4] (first compound 0.04 µM), 0.456. The relative viability in assay [4] (first compound 0.1265 µM) was found to be 0.45; in assay [4] (first compound 0.4 µM), 0.544; in assay [4] (first compound 4 µM), 0.482; in assay [1] (first compound 0.04 µM), 0.626; in assay [1] (first compound 0.1265 µM), 0.573; in assay [1] (first compound 0.4 µM), 0.623. Moreover, the relative viability is 0.771 in assay [1] (first compound 1.265 µM); 0.693 in assay [1] (first compound 4 µM); 0.821 in assay [2] (first compound 0.08 µM); 0.985 in assay [2] (first compound 2.53 µM); 0.748 in assay [2] (first compound 8 µM).
